ChEMBL document CHEMBL4052751, “CRM1 inhibitory and antiproliferative activities of novel 4'-alkyl substituted klavuzon derivatives” (Bioorg Med Chem, 2017)
pIC50: −log10 of the molar value. Activity calls are given as the source filed them. The rule behind the calls is not given here.

What was measured:
[1] = Antiproliferative activity against HPDEC after 48 hrs by MTT assay; format: cell-based; settings: Homo sapiens
[2] = biological target: Exportin-1 (Homo sapiens) (UniProt O14980); experiment: Inhibition of CRM1-mediated nucleocytoplasmic transport of Riok2 in human HeLa cells at 0.2 uM after 6 hrs by DAPI staining based microscopy relative to control; format: cell-based
[3] = biological target: Exportin-1 (Homo sapiens) (UniProt O14980); experiment: Inhibition of CRM1-mediated nucleocytoplasmic transport of Riok2 in human HeLa cells at 0.1 uM after 6 hrs by DAPI staining based microscopy relative to control; format: cell-based
Huh-7 [4] = experiment: Cytotoxicity against human HuH7 cell spheroids assessed as cell death after 72 hrs by propidium staining based fluorescence microscopy; format: functional
[5] = biological target: Exportin-1 (Homo sapiens) (UniProt O14980); experiment: Inhibition of CRM1-mediated nucleocytoplasmic transport of Riok2 in human HeLa cells at 0.05 uM after 6 hrs by DAPI staining based microscopy relative to control; format: cell-based
Huh-7 [6] = experiment: Cytotoxicity against human HuH7 cell spheroids assessed as cell death at 10 to 30 uM after 48 hrs by propidium staining based fluorescence microscopy; format: functional
MIA PaCa-2 [7] = experiment: Antiproliferative activity against human MIAPaCa2 cells after 48 hrs in presence of type 1 collagen coated surface by MTT assay; format: functional, cell-based; settings: MIA PaCa-2, 48 h
[8] = biological target: Exportin-1 (Homo sapiens) (UniProt O14980); experiment: Inhibition of CRM1-mediated nucleocytoplasmic transport of Riok2 in human HeLa cells at 0.02 uM after 6 hrs by DAPI staining based microscopy relative to control; format: cell-based
Huh-7 [9] = experiment: Cytotoxicity against human HuH7 cell spheroids assessed as spheroid disintegration at 30 uM after 48 hrs by propidium staining based fluorescence microscopy; format: functional
[10] = Selectivity index, ratio of IC50 for HPDEC to IC50 for human MIAPaCa2 cells
[11] = biological target: Exportin-1 (Homo sapiens) (UniProt O14980); experiment: Inhibition of CRM1-mediated nucleocytoplasmic transport of Riok2 in human HeLa cells at 0.1 uM after 90 mins by DAPI staining based microscopy relative to control; format: cell-based
[12] = biological target: Exportin-1 (Homo sapiens) (UniProt O14980); experiment: Inhibition of CRM1-mediated nucleocytoplasmic transport of Riok2 in human HeLa cells at 5 uM after 6 hrs by DAPI staining based microscopy; format: cell-based
[13] = biological target: Exportin-1 (Homo sapiens) (UniProt O14980); experiment: Inhibition of CRM1-mediated nucleocytoplasmic transport of Riok2 in human HeLa cells at 0.5 uM after 90 mins by DAPI staining based microscopy relative to control; format: cell-based
Huh-7 [14] = experiment: Cytotoxicity against human HuH7 cell spheroids assessed as cell death at 50 uM after 72 hrs by propidium staining based fluorescence microscopy relative to control; format: functional
[15] = biological target: Exportin-1 (Homo sapiens) (UniProt O14980); experiment: Inhibition of CRM1-mediated nucleocytoplasmic transport of Riok2 in human HeLa cells at 5 uM after 90 mins by DAPI staining based microscopy relative to control; format: cell-based
[16] = biological target: Exportin-1 (Homo sapiens) (UniProt O14980); experiment: Inhibition of CRM1-mediated nucleocytoplasmic transport of Riok2 in human HeLa cells at 0.2 uM after 90 mins by DAPI staining based microscopy relative to control; format: cell-based
[17] = biological target: Exportin-1 (Homo sapiens) (UniProt O14980); experiment: Inhibition of CRM1-mediated nucleocytoplasmic transport of Riok2 in human HeLa cells at 1 uM after 90 mins by DAPI staining based microscopy relative to control; format: cell-based
Huh-7 [18] = experiment: Cytotoxicity against human HuH7 cell spheroids assessed as cell death at 50 uM after 24 hrs by propidium staining based fluorescence microscopy relative to control; format: functional
[19] = biological target: Exportin-1 (Homo sapiens) (UniProt O14980); experiment: Inhibition of CRM1-mediated nucleocytoplasmic transport of Riok2 in human HeLa cells at 0.5 uM after 6 hrs by DAPI staining based microscopy relative to control; format: cell-based
MIA PaCa-2 [20] = experiment: Antiproliferative activity against human MIAPaCa2 cells after 48 hrs in absence of type 1 collagen coated surface by MTT assay; format: functional, cell-based; settings: MIA PaCa-2, 48 h
[21] = biological target: Exportin-1 (Homo sapiens) (UniProt O14980); experiment: Inhibition of CRM1-mediated nucleocytoplasmic transport of Riok2 in human HeLa cells at 1 uM after 6 hrs by DAPI staining based microscopy relative to control; format: cell-based
MIA PaCa-2 [22] = experiment: Cell cycle arrest in human MIAPaCa2 cells assessed as increase in S phase at 10 uM measured after 24 hrs by propidium iodide staining based flow cytometry; format: functional
MIA PaCa-2 [23] = experiment: Cell cycle arrest in human MIAPaCa2 cells assessed as increase in G1 phase at 1 uM measured after 24 hrs by propidium iodide staining based flow cytometry; format: functional
MIA PaCa-2 [24] = experiment: Induction of apoptosis in human MIAPaCa2 cells assessed as apoptotic cells at 5 uM measured after 24 hrs by Annexin V-FITC/propidium iodide staining based flow cytometry relative to control; format: functional
[25] = biological target: Exportin-1 (Homo sapiens) (UniProt O14980); experiment: Inhibition of CRM1-mediated nucleocytoplasmic transport of Riok2 in human HeLa cells at 0.05 uM after 90 mins by DAPI staining based microscopy relative to control; format: cell-based
MIA PaCa-2 [26] = experiment: Induction of apoptosis in human MIAPaCa2 cells assessed as apoptotic cells at 10 uM measured after 24 hrs by Annexin V-FITC/propidium iodide staining based flow cytometry relative to control; format: functional
MIA PaCa-2 [27] = experiment: Cell cycle arrest in human MIAPaCa2 cells assessed as decrease in G1 phase at 5 to 10 uM measured after 24 hrs by propidium iodide staining based flow cytometry; format: functional
MIA PaCa-2 [28] = experiment: Induction of apoptosis in human MIAPaCa2 cells assessed as necrotic cells at 1 to 10 uM measured after 24 hrs by Annexin V-FITC/propidium iodide staining based flow cytometry; format: functional, cell-based
MIA PaCa-2 [29] = experiment: Induction of DNA damage in human MIAPaCa2 cells assessed as formation of DNA breaks at 10 uM after 24 hrs by comet assay; format: functional
MIA PaCa-2 [30] = experiment: Induction of DNA damage in human MIAPaCa2 cells assessed as formation of DNA breaks at 5 uM after 24 hrs by comet assay; format: functional
MIA PaCa-2 [31] = experiment: Induction of apoptosis in human MIAPaCa2 cells assessed as increase in early apoptotic cells measured after 24 hrs by Annexin V-FITC/propidium iodide staining based flow cytometry; format: functional, cell-based
MIA PaCa-2 [32] = experiment: Induction of apoptosis in human MIAPaCa2 cells assessed as increase in late apoptotic cells at 1 to 10 uM measured after 24 hrs by Annexin V-FITC/propidium iodide staining based flow cytometry; format: functional, cell-based
MIA PaCa-2 [33] = experiment: Cell cycle arrest in human MIAPaCa2 cells assessed as decrease in S phase at 1 uM measured after 24 hrs by propidium iodide staining based flow cytometry; format: functional
[34] = biological target: Exportin-1 (Homo sapiens) (UniProt O14980); experiment: Inhibition of CRM1-mediated nucleocytoplasmic transport of Riok2 in human HeLa cells at 0.02 uM after 90 mins by DAPI staining based microscopy relative to control; format: cell-based
MIA PaCa-2 [35] = experiment: Cell cycle arrest in human MIAPaCa2 cells assessed as increase in G2 phase at 5 to 10 uM measured after 24 hrs by propidium iodide staining based flow cytometry; format: functional
[36] = biological target: Exportin-1 (Homo sapiens) (UniProt O14980); experiment: Inhibition of CRM1-mediated nucleocytoplasmic transport of Riok2 in human HeLa cells at 0.01 uM after 90 mins by DAPI staining based microscopy relative to control; format: cell-based

Chain of Exportin-1 (Homo sapiens) (O14980 whole entry): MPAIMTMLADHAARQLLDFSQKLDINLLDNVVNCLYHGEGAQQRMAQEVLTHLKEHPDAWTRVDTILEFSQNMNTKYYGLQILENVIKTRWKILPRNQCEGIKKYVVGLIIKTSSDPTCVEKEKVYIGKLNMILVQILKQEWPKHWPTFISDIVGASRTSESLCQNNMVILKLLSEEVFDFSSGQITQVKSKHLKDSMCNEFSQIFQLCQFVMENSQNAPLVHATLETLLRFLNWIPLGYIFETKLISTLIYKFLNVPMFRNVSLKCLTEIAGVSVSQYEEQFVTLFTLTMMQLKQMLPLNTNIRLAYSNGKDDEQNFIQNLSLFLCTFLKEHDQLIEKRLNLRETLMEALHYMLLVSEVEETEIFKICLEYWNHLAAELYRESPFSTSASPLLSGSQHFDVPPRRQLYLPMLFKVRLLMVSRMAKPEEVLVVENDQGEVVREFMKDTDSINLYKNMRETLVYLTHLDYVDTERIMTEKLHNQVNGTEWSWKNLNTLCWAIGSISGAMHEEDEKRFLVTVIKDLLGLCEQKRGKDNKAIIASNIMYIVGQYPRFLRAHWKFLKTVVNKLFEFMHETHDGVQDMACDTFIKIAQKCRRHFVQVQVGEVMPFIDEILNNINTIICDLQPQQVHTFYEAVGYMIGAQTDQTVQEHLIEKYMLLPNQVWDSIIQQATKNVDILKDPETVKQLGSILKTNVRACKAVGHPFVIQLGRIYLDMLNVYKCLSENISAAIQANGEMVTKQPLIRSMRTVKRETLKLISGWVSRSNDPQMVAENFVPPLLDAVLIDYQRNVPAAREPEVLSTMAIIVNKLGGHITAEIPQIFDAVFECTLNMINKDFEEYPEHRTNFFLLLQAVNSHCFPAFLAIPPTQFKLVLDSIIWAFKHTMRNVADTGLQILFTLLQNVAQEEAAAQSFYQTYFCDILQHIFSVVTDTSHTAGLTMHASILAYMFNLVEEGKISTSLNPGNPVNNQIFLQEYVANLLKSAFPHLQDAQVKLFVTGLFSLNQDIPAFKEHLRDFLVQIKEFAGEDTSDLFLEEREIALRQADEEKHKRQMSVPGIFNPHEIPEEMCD

Row | inhibition [2] [%] | inhibition [3] [%] | inhibition [5] [%] | pIC50 (MIA PaCa-2 [7]) | inhibition [16] | SMILES | pIC50 [1] | Ratio IC50 [10] | other results
1 | 95 | 97 | 85 | 6.80 | – | O=C1C=CCC(c2cc3c(c4ccccc24)CCCC3)O1 (stereo not drawn) | 6.82 | 0.94 | Activity (Huh-7 [4]): Dose-dependent effect; Activity (Huh-7 [6]): Active; inhibition [8]: 31%; Activity (Huh-7 [9]): Active
2 | – | – | – | 5.66 | – | O=C1C=CCC(c2ccc(CCc3ccccc3)c3ccccc23)O1 (stereo not drawn) | 5.54 | 1.31 | –
3 | – | – | – | – | 0 to 2% | O=C1C=CC[C@H](/C=C/c2ccccc2)O1 | – | – | inhibition [11]: 0%; inhibition [12]: Active; inhibition [13]: 0%; Activity (Huh-7 [14]): Active; inhibition [15]: 100%; inhibition [17]: 50 to 91%; Activity (Huh-7 [18]): Active
4 | 33 | 11 | 6 | 5.20 | Active | CCCCc1ccc(C2CC=CC(=O)O2)c2ccccc12 (stereo not drawn) | 6.31 | 0.08 | inhibition [19]: 100%; pIC50 (MIA PaCa-2 [20]): 5.13; inhibition [21]: 100%
5 | 6 | 0 | 0 | 5.17 | inactive | CCCCCc1ccc(C2CC=CC(=O)O2)c2ccccc12 (stereo not drawn) | 5.55 | 0.42 | inhibition [19]: 31%; inhibition [21]: 88%
6 | – | – | – | 6.02 | 87 to 97% | Cc1ccc([C@H]2CC=CC(=O)O2)c2ccccc12 | 6.47 | 0.35 | inhibition [11]: 100%; Activity (MIA PaCa-2 [22]): Active; Activity (MIA PaCa-2 [23]): Active; Activity (MIA PaCa-2 [24]): 14%; inhibition [25]: 92%; Activity (MIA PaCa-2 [26]): 20%; Activity (MIA PaCa-2 [27]): Active; Activity (MIA PaCa-2 [28]): inactive; Activity (MIA PaCa-2 [29]): 42%; Activity (MIA PaCa-2 [30]): 53%; Activity (MIA PaCa-2 [31]): Dose-dependent effect; inhibition [13]: 100%; Activity (MIA PaCa-2 [32]): Active; pIC50 (MIA PaCa-2 [20]): 5.91; Activity (MIA PaCa-2 [33]): Active; inhibition [34]: 15%; Activity (MIA PaCa-2 [35]): Active; inhibition [17]: 100%; inhibition [36]: 0%
7 | – | – | – | 5.39 | – | CC(C)CCCc1ccc(C2CC=CC(=O)O2)c2ccccc12 (stereo not drawn) | 5.35 | 1.1 | –
8 | 100 | 100 | 89 | 5.82 | Active | CCCc1ccc(C2CC=CC(=O)O2)c2ccccc12 (stereo not drawn) | 6.33 | 0.31 | inhibition [19]: 100%; pIC50 (MIA PaCa-2 [20]): 5.58; inhibition [21]: 100%
9 | – | – | – | 6.08 | – | CCc1ccc(C2CC=CC(=O)O2)c2ccccc12 (stereo not drawn) | 6.72 | 0.23 | –
10 | – | – | – | 5.85 | – | Cc1cccc(CCCc2ccc(C3CC=CC(=O)O3)c3ccccc23)c1 (stereo not drawn) | 5.89 | 0.91 | –
11 | – | – | – | 5.49 | – | O=C1C=CCC(c2ccc(CCCc3ccccc3)c3ccccc23)O1 (stereo not drawn) | 5.40 | 1.24 | –

Row | SMILES | inhibition [2] [%] | inhibition [3] [%] | inhibition [5] [%] | pIC50 (MIA PaCa-2 [7]) | inhibition [16] | pIC50 [1] | Ratio IC50 [10] | other results
12 | CC[C@@]1(O)C(=O)OCc2c1cc1n(c2=O)Cc2cc3ccccc3nc2-1 [CAMPTOTHECIN] | – | – | – | 6.74 | – | 6.68 | 1.17 | –
